The subject of one data set is ATP1A2. The data set is classed as cell-based, human.
In a further data set the test system is GFAP. The format is cell-based, human.
Data set [1] deals with PrP^C. Conditions: for effect of co-incubated inhibitor on ouabain-induced reduction in PrP^C levels: 25 nM ouabain or 20 nM ouabain; for effect on steady-state PrP^C levels: 3-day exposure (FIG. 7), ouabain 20 nM.
Another data set relates to ATP1A1. The data set is classed as cell-based, human.
The subject of a further data set is ATP1A3. The data set is classed as cell-based, human.
For another data set, the system named is HeLa cells. Conditions: cited from earlier work.
The test system of data set [2] is ReN VM cells. Conditions: human.
For data set [3] the following is noted: mouse, in vivo, sc.
The test system of data set [4] is class III beta tubulin (Tuj-1). The data set is classed as cell-based, human.
The conditions of data set [5]: cited from earlier work.
The next data set relates to NKA β subunit. The data set is classed as cell-based, human.
For data set [6], the system named is PrP^C. As to conditions: literature screens; cited from earlier work.
Data set [7] deals with ReN VM cells. Briefly: cells. As to conditions: Homo sapiens, 168 h, read-out: cellular toxicity: concentration at which ATP levels drop to 50% of mock-treated control. The data set is classed as cell-based.
For data set [8], the system named is NKAs. As to conditions: cited from earlier work.
In data set [9] the test system is ReN VM cells. Briefly: cells. The format is cell-based, human.
Data set [10] concerns ReN VM cells. Briefly: cells. The data set is classed as cell-based. Conditions: Homo sapiens, 168 h, read-out: concentration at which metabolic activity dropped to 50%.
The subject of data set [11] is 5′-ectonucleotidase (5′-NT). The format is cell-based, human.
Data set [12] has as its system NKAs.
Data set [13] deals with NKAs. Conditions: cited from earlier work. The source holds these as a separate data set.
Where [14] appears, read: differentiated ReN VM cells, one-week exposure.

We go through ten compounds from patent publication US20240166684A1 (priority 2021, published 2024).

Entries after “also recorded” stand apart in the source; their conditions may differ. Where two headings read alike, the source gives them in different places. Non-standard residues stand in square brackets, D forms with d. Residues, ends and D or L forms follow the SMILES beside them. *: point of attachment. Nle = CCCC[C@H](N)C(=O)O; Cbz = O=C(OCc1ccccc1)* Where only a bound is given, the exact number is not on record here.

In the case of `CCCC[C@@H](C=O)NC(=O)[C@H](CC(C)C)NC(=O)[C@H](CC(C)C)NC(C)=O` [A6185, N-acetyl-Leu-Leu-norleucinal] (Ac-Leu-Leu-[Nle]-aldehyde), the “effect on steady-state ATP1A2 levels” value in the data set on ATP1A2 is listed as “diminished”. Further, in the data set on GFAP, the “effect on ouabain-induced formation of faster migrating GFAP bands” value is “blocked the excessive formation of faster migrating bands”. Also, in the data set on PrP^C [1], the “effect of co-incubated inhibitor on ouabain-induced reduction in PrP^C levels” value was “did neither prevent”. Further, the “effect on steady-state PrP^C levels” value in the data set on PrP^C [1] (ReN VM cells) is reported as “diminished”. For the same compound, the “effect on steady-state ATP1A1 levels” value in the data set with ATP1A1 is listed as “no apparent effect”. Moreover, the “effect on steady-state ATP1A3 levels” value with ATP1A3 is “no apparent effect”.
As to `COC1C[C@H](O[C@H]2CC[C@]3(C)C4CC[C@]5(C)[C@@H](C6=CC(=O)OC6)[C@@H](OC(C)=O)C[C@]5(O)[C@@H]4CC[C@@H]3C2)OC(C)C1=O` (stereo partly drawn) [I-3, 4′-dehydro-oleandrin], in the data set with HeLa cells, the IC50 was 46 nM and the “cytotoxicity relative to oleandrin” value was “slightly reduced relative to oleandrin”. Also, the “effect of I-3 on steady-state ATP1A2 levels” value in the data set on ATP1A2 is listed as “declined as levels of exemplary compound I-3 were increased”. For the same compound, in the data set on ReN VM cells [2], the tolerated concentration result was “up to 30 nM” and the toxic concentration is no less than 40 nM. Also, in data set [3], the “concentration accumulated in the brain” value amounted to 38.8 nM; the “time of highest levels in heart, kidney and liver” value was found to be 4 h. In addition, the “effect on steady-state GFAP levels” value in the data set with GFAP was “not paralleled by significant changes”. For the same compound, the “maximum reduction in steady-state PrP^C levels” value in the data set on PrP^C [1] (12 nM, one week, ReN VM cells) worked out at 84%. Moreover, in the data set on PrP^C [1] (setting [14]), the “concentration at which PrP^C signal rebounds / migrates differently in SDS-PAGE” value is 20 to 32 nM and the “concentrations causing concentration-dependent reduction of steady-state PrP^C levels” value was 4 to 16 nM. In addition, the “effect on Tuj-1 levels” value in data set [4] is on record as “not paralleled by significant changes”. Also, in the data set on ATP1A1, the “concentration achieving similar reduction in ATP1A1 levels” value turned out to be 4 nM and the “concentrations causing reduction of steady-state ATP1A1 levels” value is “up to 16 nM”. In the data set on ATP1A3, the “concentration at which ATP1A3 levels reach a maximum” value is 24 to 32 nM and the “concentration up to which ATP1A3 levels stayed unchanged” value is given as “up to 8 nM”. Moreover, in [5] (cats), the “oral effectiveness (oral versus intravenous lethal doses), increase relative to oleandrin” value is “approximately 20%”. Further, in data set [5] (in vivo, po), the “oral toxicity relative to oleandrin” value is given as “almost twofold lower”. The “effect on NKA β subunit levels” value with NKA β subunit is “lesser, yet also pronounced reduction”.
`CC(C)C[C@@H](C=O)NC(=O)[C@H](CC(C)C)NC(=O)[C@H](CC(C)C)NC(=O)OCc1ccccc1` [MG132] (Cbz-Leu-Leu-Leu-aldehyde): in the data set with PrP^C [1], the “effect of co-incubated inhibitor on ouabain-induced reduction in PrP^C levels” value is “failed to block”. For the same compound, in the data set on ATP1A1, the “effect of co-incubated inhibitor on ouabain-induced reduction in ATP1A1 levels” value was “caused an increase in ATP1A1 steady-state levels”.
For the compound `C=CC[C@@H]1/C=C(\C)C[C@H](C)C[C@H](OC)[C@H]2O[C@@](O)(C(=O)C(=O)N3CCCC[C@H]3C(=O)O[C@H](/C(C)=C/[C@@H]3CC[C@@H](O)[C@H](OC)C3)[C@H](C)[C@@H](O)CC1=O)[C@H](C)C[C@@H]2OC` [Tacrolimus], the “effective concentrations for reducing PrP^C levels” value in the data set on PrP^C [6] is “micromolar”.
For `C[C@H]1O[C@@H](O[C@H]2[C@@H](O)C[C@H](O[C@H]3[C@@H](O)C[C@H](O[C@H]4CC[C@@]5(C)[C@H](CC[C@@H]6[C@@H]5C[C@@H](O)[C@]5(C)[C@@H](C7=CC(=O)OC7)CC[C@]65O)C4)O[C@@H]3C)O[C@@H]2C)C[C@H](O)[C@@H]1O` [digoxin], the IC50 in the data set on ReN VM cells [7] is roughly 25 nM; with ReN VM cells [9] (Homo sapiens, 168 h, read-out: concentration giving half maximum intracellular calcium levels), 30 nM; in the data set on ReN VM cells [10], roughly 50 nM. Moreover, the “time to dissociate from NKAs” value with NKAs [8] is 18 h. Moreover, in the data set with ReN VM cells [2], the “level above which all three measures of cellular health dropped” value is given as “Above 10 nM”. Further, in the data set on ReN VM cells [9], the “increase of cellular calcium levels” value is reported as “approximately 20%”.
With `CC(=O)N[C@@H](CSC(=O)[C@]1([C@@H](O)C(C)C)NC(=O)[C@H](C)[C@@H]1O)C(=O)O` [lactacystin], the “effect of co-incubated inhibitor on ouabain-induced reduction in PrP^C levels” value in the data set with PrP^C [1] was “failed to block”. Besides, the “effect of co-incubated inhibitor on ouabain-induced reduction in ATP1A1 levels” value in the data set on ATP1A1 is listed as “caused an increase in ATP1A1 steady-state levels”.
On to `COC1C[C@H](O[C@H]2CC[C@]3(C)C4CC[C@]5(C)[C@@H](C6=CC(=O)OC6)[C@@H](OC(C)=O)C[C@]5(O)[C@@H]4CC[C@@H]3C2)OC(C)[C@@H]1O` (stereo partly drawn) [oleandrin, acetic acid [(3S,5R,10S,13R,14S,16S,17′R)-14-hydroxy-3-[[(2R,4S,5S,6S)-5-hydroxy-4-methoxy-6-methyl-2-tetrahydropyranyl]oxy]-10,13-dimethyl-17-(5-oxo-2H-furan-3-yl)-1,2,3,4,5,6,7,8,9,11,12,15,16,17-tetradecahydrocyclopenta[a]phenanthren-16-yl] ester], for which the tolerated concentration entry with ReN VM cells [2] is “up to 2 nM”. In data set [3], the “brain levels relative to other organs” value was “lowest in the brain”; the “time of rapid increase in heart, kidney and liver” value turned out to be 2 h. The “potency of oleandrin relative to ouabain for similar reduction of ATP1A1 and PrP^C” value with PrP^C [1] (7-day treatment, differentiated ReN VM cells) was “approximately tenfold higher potency; also recorded: tenfold lower levels”. Moreover, in the data set with ATP1A1, the “concentration achieving similar reduction in ATP1A1 levels” value is recorded as 4 nM and the “concentration at which ATP1A1 levels rebound / increase” value was “around 2 nM”.
On to `C[C@@H]1O[C@@H](O[C@H]2C[C@@H](O)[C@]3(CO)[C@H]4[C@H](O)C[C@]5(C)[C@@H](C6=CC(=O)OC6)CC[C@]5(O)[C@@H]4CC[C@]3(O)C2)[C@H](O)[C@H](O)[C@H]1O` [ouabain], for which the “time to dissociate from NKAs” value in the data set with NKAs [8] is “less than two hours”. Besides, the “effect on steady-state ATP1A2 levels” value with ATP1A2 was “reduction”. Further, the “effect on steady-state 5′-NT levels” value in [11] is “increase”. Besides, in the data set with GFAP, the “effect on GFAP antibody-reactive bands” value is “an increase in the intensity levels of bands that were reactive toward GFAP-directed antibodies”. Also, in the data set on PrP^C [1] (ReN VM cells), the “effect on steady-state PrP^C levels” value is “reduction”. Further, in the data set with PrP^C [1] (setting [14]), the “concentration at which PrP^C signal rebounds / migrates differently in SDS-PAGE” value was found to be 50 nM and the “lowest concentration at which PrP^C reduction is apparent” value came out at 3 nM. Further, the “reduction of total 86Rb+ uptake by complete block of NKAs” value in the data set with NKAs [12] was 49%. Also, in the data set with NKAs [13], the IC50 was 15 to 41 nM. Also, in the data set on ATP1A1, the “concentration at which ATP1A1 levels rebound / increase” value was determined as 50 nM, the “concentrations causing reduction of steady-state ATP1A1 levels” value is “up to 30 nM”, the “effect on steady-state ATP1A1 levels” value was “reduction” and the “lowest concentration at which ATP1A1 reduction is apparent” value is on record as 3 nM. For the same compound, in the data set with ATP1A3, the “effect on steady-state ATP1A3 levels” value was “not affected”.
Consider bafilomycin, for which the “effect of co-incubated inhibitor on ouabain-induced reduction in PrP^C levels” value in the data set on PrP^C [1] is listed as “rescued”. Besides, the “effect of co-incubated inhibitor on ouabain-induced reduction in ATP1A1 levels” value with ATP1A1 is “rescued”.
With calpastatin, the “effect of co-incubated inhibitor on ouabain-induced reduction in PrP^C levels” value in the data set on PrP^C [1] is on record as “did neither prevent”. Also, the “effect of co-incubated inhibitor on ouabain-induced reduction in ATP1A1 levels” value in the data set on ATP1A1 is “did neither prevent”.
